Experimental data reported in patent US11401264B2, “Heterocyclic compound” (Orizuru Therapeutics, Inc., priority 2018, dated 2022).

Tested on: cardiomyocytes from double knock-in human iPS cell lines (mCherry at TNNI3 locus)
Assay: Experimental Example 1: mCherry (TNNI3 reporter) immunostaining measured by high contents screening
Type: cell-based
Parameters: key to average fluorescent intensity (at 30 μM): —: The symbol in Table 2 means that the average fluorescent intensity cannot be evaluated due to cell decrease
Details: read on 8th day, Alexa 647 anti-mCherry, control well 797; for average fluorescent intensity (at 1 μM): test compound 1 μM added on 3rd and 6th culture days; for average fluorescent intensity (at 30 μM): test compound 30 μM added on 3rd and 6th culture days
Description: For detection of cardiomyocyte maturation, double knock-in human iPS cell lines, in which reporter protein sequences, EmGFP (Sequence Number 1) and mCherry (Sequence Number 2) were inserted into gene loci for TNNI1 and TNNI3, respectively, were prepared (the human iPS cells were prepared from episomal vector (loaded gene; OCT3/4, KLF4, SOX2, L-MYC, LIN28, mouse p53DD) using PBMC (LP_167, Sample ID: 20130318) purchased from CTL (reference literature; Okita K, et al. Stem Cells. 2012 Nov. 29. doi: 10.1002/stem.1293)).
The maintenance culture of the above-mentioned reporter iPS cell lines was carried out by a conventional method (Okita K, et al. Stem Cells. 2012 Nov. 29. doi: 10.1002/stem.1293).
For differentiation induction into cardiomyocytes, the reporter iPS cell lines were treated with 0.5×TrypLE select (Life Technologies, diluted in 1/2 with 0.5 mM EDTA/PBS) for 4 to 5 minutes, and the cells were exfoliated using a cell scraper (IWAKI), and then dissociated into the single cell by pipetting. The medium was removed by centrifugation (1,000 rpm, 5 min), and the obtained cells were seeded on a bioreactor (ABLE) by 1×10^7 cells per 30 mL of the bioreactor, and then cultured in a medium prepared by adding 1% L-glutamine, transferrin 150 μg/mL, ascorbic acid 50 μg/mL (Sigma), monothioglycerol 4×10^−4 M, 10 μM Rock inhibitor (Y-27632), 2 ng/mL BMP4 (R&D) and 0.5% Matrigel (Growth Factor Reduced) to a medium after removal of solution C from StemFit AK02 (AJINOMOTO AK02, 400 mL of solution A and 100 mL of B solution, total 500 mL), at 37° C., under 5% oxygen condition (55 rpm, stirred suspension culture method) to form embryoid bodies (0 day).
Next day (1st day), 9 μL (final concentration 3 ng/mL) of 10 μg/mL activin A, 15 μL (final concentration 5 ng/mL) of 10 μg/mL bFGF and […] (final concentration 10 ng/mL) of 10 μg/mL BMP4 were added to the bioreactor, and the cells were cultured at 37° C. for additional 2 days, under 5% oxygen condition.
Then (3rd day), the obtained embryoid bodies were collected in a 50 mL centrifuge tube, and then subjected to centrifugation (200 g, 1 min). The medium was removed, and the embryoid bodies were cultured in a medium prepared by adding 1% L-glutamine, transferrin 150 μg/mL, ascorbic acid 50 μg/mL (Sigma), monothioglycerol 4×10^−4 M, 10 ng/mL VEGF, 1 μM IWP-3, 0.6 μM dorsomorphin and 5.4 μM SB431542 to a medium after removal of solution C from StemFit AK02 (AJINOMOTO AK02, 400 mL of solution A and 100 mL of B solution, total 500 mL), at 37° C. for 3 days, under 5% oxygen condition (55 rpm, stirred suspension culture method).
Then (6th day), the bioreactor was left to stand to precipitate the embryoid bodies, and 80 to 90% of the medium was removed. A medium prepared by adding 1% L-glutamine, transferrin 150 μg/mL, ascorbic acid 50 μg/mL (Sigma), monothioglycerol […] and 5 ng/mL VEGF to a medium after removal of solution C from StemFit AK02 (AJINOMOTO AK02, 400 mL of solution A and 100 mL of B solution, total 500 mL) was added to the bioreactor so that the total volume became 30 mL, and the embryoid bodies were cultured for 8 days, at 37° C., under 5% oxygen condition (55 rpm, stirred suspension culture method). During the culture, the medium was replaced with a medium under the same conditions every 2 to 3 days.
14th Day after the start of the differentiation induction, the embryoid bodies were treated with 2 mg/mL collagenase type I (Sigma) for 2 hr, and then with 0.25% trypsin/EDTA (Invitrogen) for 10 min. 50% FBS/IMDM (Thermo Fisher Science) was added thereto, and the embryoid bodies were dissociated into the single cell by pipetting, and then subjected to centrifugation (1,000 rpm, 5 minutes). […]

| SMILES | average fluorescent intensity (at 1 μM) | average fluorescent intensity (at 30 μM) |
| --- | --- | --- |
| O=C(COc1ccc(-c2nc3cc(N4Cc5cc(N6CCCCC6)ccc5C4=O)ccc3[nH]2)cc1)NC1CC1 [Example 25, N-cyclopropyl-2-(4-(5-(1-oxo-5-(piperidin-1-yl)-1,3-dihydro-2H-isoindol-2-yl)-1H-benzimidazol-2-yl)phenoxy)acetamide] | 1260 | 900 |
| CC(C)Oc1ccc(-c2nc3cc(N4Cc5cc(N6CCCCC6)ccc5C4=O)ccc3[nH]2)cc1 [Example 48, 2-(2-(4-isopropoxyphenyl)-1H-benzimidazol-5-yl)-5-(piperidin-1-yl)isoindolin-1-one] | 1182 | 1408 |
| CCN(CC)c1ccc2c(c1)CN(c1ccc3[nH]c(-c4ccc(OC)cc4)nc3c1)C2=O [Example 71, 5-(diethylamino)-2-(2-(4-methoxyphenyl)-1H-benzimidazol-5-yl)isoindolin-1-one] | 923 | — |
| Cc1ccc(NC(=O)COc2ccc(-c3nc4cc(N5Cc6cc(N7CCCCC7)ccc6C5=O)ccc4[nH]3)cc2)cc1 [Example 22, N-(4-methylphenyl)-2-(4-(5-(1-oxo-5-(piperidin-1-yl)-1,3-dihydro-2H-isoindol-2-yl)-1H-benzimidazol-2-yl)phenoxy)acetamide] | 1211 | — |
| O=C1c2ccc(N3CCOCC3)cc2CN1c1ccc2[nH]c(-c3ccc(Cl)cc3)nc2c1 [Example 56, 2-(2-(4-chlorophenyl)-1H-benzimidazol-5-yl)-5-(morpholin-4-yl)isoindolin-1-one] | 1185 | 897 |
| O=C1c2ccc(N3CCCCC3)cc2CN1c1ccc2[nH]c(-c3cccs3)nc2c1 [Example 41, 5-(piperidin-1-yl)-2-(2-(2-thienyl)-1H-benzimidazol-5-yl)isoindolin-1-one] | 1107 | 1571 |
| O=C1c2ccc(N3CCOCC3)cc2CN1c1ccc2[nH]c(-c3ccc(OCc4ccccc4)cc3)nc2c1 [Example 55, 2-(2-(4-(benzyloxy)phenyl)-1H-benzimidazol-5-yl)-5-(morpholin-4-yl)isoindolin-1-one] | 1092 | — |
| COC(=O)COc1ccc(-c2nc3cc(N4Cc5cc(N6CCCCC6)ccc5C4=O)ccc3[nH]2)cc1 [Example 5, methyl (4-(5-(l-oxo-5-(piperidin-1-yl)-1,3-dihydro-2H-isoindol-2-yl)-1H-benzimidazol-2-yl)phenoxy)acetate] | 1078 | — |
| O=C1c2ccc(N3CCCCC3)cc2CN1c1ccc2[nH]c(C3CCCCC3)nc2c1 [Example 44, 2-(2-cyclohexyl-1H-benzimidazol-5-yl)-5-(piperidin-1-yl)isoindolin-1-one] | 1071 | 1141 |
| O=C1c2ccc(N3CCOCC3)cc2CN1c1ccc2[nH]c(-c3ccccc3)nc2c1 [Example 73, 5-(morpholin-4-yl)-2-(2-phenyl-1H-benzimidazol-5-yl)isoindolin-1-one] | 1231 | 922 |
| O=C(O)COc1ccc(-c2nc3cc(N4Cc5cc(N6CCOCC6)ccc5C4=O)ccc3[nH]2)cc1 [Example 51, (4-(5-(5-(morpholin-4-yl)-1-oxo-1,3-dihydro-2H-isoindol-2-yl)-1H-benzimidazol-2-yl)phenoxy)acetic acid] | 963 | 1279 |
| CCCNC(=O)COc1ccc(-c2nc3cc(N4Cc5cc(N6CCOCC6)ccc5C4=O)ccc3[nH]2)cc1 [Example 49, 2-(4-(5-(5-(morpholin-4-yl)-1-oxo-1,3-dihydro-2H-isoindol-2-yl)-1H-benzimidazol-2-yl)phenoxy)-N-propylacetannide] | 1382 | 890 |
| CN(C(=O)COc1ccc(-c2nc3cc(N4Cc5cc(N6CCCCC6)ccc5C4=O)ccc3[nH]2)cc1)C1CCOCC1 [Example 14, N-methyl-2-(4-(5-(1-oxo-5-(piperidin-1-yl)-1,3-dihydro-2H-isoindol-2-yl)-1H-benzimidazol-2-yl)phenoxy)-N-(tetrahydro-2H-pyran-4-yl)acetamide] | 2143 | 2012 |
| O=C1c2ccc(N3CCCCC3)cc2CN1c1ccc2[nH]c(-c3ccc(OCc4ccccc4)cc3)nc2c1 [Example 3, 2-(2-(4-(benzyloxy)phenyl)-1H-benzimidazol-5-yl)-5-(piperidin-1-yl)isoindolin-1-one] | 933 | 1441 |
| O=C1c2ccc(N3CCCCC3)cc2CN1c1ccc2[nH]c(-c3ccno3)nc2c1 [Example 40, 2-(2-(1,2-oxazol-5-yl)-1H-benzimidazol-5-yl)-5-(piperidin-1-yl)isoindolin-1-one] | 1089 | 1327 |
| O=C1c2ccc(N3CCCCC3)cc2CN1c1ccc2[nH]c(Cc3ccccc3)nc2c1 [Example 2, 2-(2-benzyl-1H-benzimidazol-5-yl)-5-(piperidin-1-yl)isoindolin-1-one] | 943 | 1073 |
| Cc1cccc(NC(=O)COc2ccc(-c3nc4cc(N5Cc6cc(N7CCCCC7)ccc6C5=O)ccc4[nH]3)cc2)c1 [Example 23, N-(3-methylphenyl)-2-(4-(5-(1-oxo-5-(piperidin-1-yl)-1,3-dihydro-2H-isoindol-2-yl)-1H-benzimidazol-2-yl)phenoxy)acetamide] | 1386 |  |
| O=C(COc1ccc(-c2nc3cc(N4Cc5cc(N6CCCCC6)ccc5C4=O)ccc3[nH]2)cc1)NCCNc1cccc(F)c1 [Example 10, N-(2-((3-fluorophenyl)amino)ethyl)-2-(4-(5-(1-oxo-5-(piperidin-1-yl)-1,3-dihydro-2H-isoindol-2-yl)-1H-benzimidazol-2-yl)phenoxy)acetamide] | 1032 | — |
| O=C(COc1ccc(-c2nc3cc(N4Cc5cc(N6CCOCC6)ccc5C4=O)ccc3[nH]2)cc1)NC1CCOCC1 [Example 31, 2-(4-(5-(5-(morpholin-4-yl)-1-oxo-1,3-dihydro-2H-isoindol-2-yl)-1H-benzimidazol-2-yl)phenoxy)-N-(tetrahydro-2H-pyran-4-yl)acetamide] | 736 | 888 |
| O=C1c2ccc(N3CCOCC3)cc2CN1c1ccc2[nH]c(-c3ccc(O)cc3)nc2c1 [Example 53, 2-(2-(4-hydroxyphenyl)-1H-benzimidazol-5-yl)-5-(morpholin-4-yl)isoindolin-1-one] | 880 | 2812 |
| O=C(COc1ccc(-c2nc3cc(N4Cc5cc(N6CCCCC6)ccc5C4=O)ccc3[nH]2)cc1)Nc1ccc(Cl)cc1 [Example 21, N-(4-chlorophenyl)-2-(4-(5-(1-oxo-5-(piperidin-1-yl)-1,3-dihydro-2H-isoindol-2-yl)-1H-benzimidazol-2-yl)phenoxy)acetamide] | 1120 | — |
